Where “and” joins values, the source holds several entries; their conditions need not be identical. Equal values may be shown once. Inconclusive results and toxic doses are left out. How the source made its calls: active means survival T/C of 150% or more; inactive means T/C below 125% in these data.
Tested on: CD2F1 mice, L1210 leukemia ip, survival T/C
Assay: NCI In Vivo Anticancer Drug Screen. Data for tumor model L1210 Leukemia (intraperitoneal) in CD2F1 (CDF1) mice
Details: higher = longer survival
Method in brief: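 Ratio T/C, where T is the treated-group value and C the vehicle-dosed control value, from mice implanted with a transplantable tumor.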

[1] = endpoint: mean survival time, dose: 100.0 mg/kg/injection, schedule: Q01DX001 (ip), vehicle: saline with Tween-80
[2] = endpoint: mean survival time, dose: 50.0 mg/kg/injection, schedule: Q01DX001 (ip), vehicle: saline
[3] = endpoint: mean survival time, dose: 100.0 mg/kg/injection, schedule: Q01DX001 (ip), vehicle: saline
[4] = endpoint: mean survival time, dose: 200.0 mg/kg/injection, schedule: Q01DX001 (ip), vehicle: saline
[5] = endpoint: mean survival time, dose: 25.0 mg/kg/injection, schedule: Q04DX002 (ip), vehicle: saline with Tween-80
[6] = endpoint: mean survival time, dose: 50.0 mg/kg/injection, schedule: Q01DX009 (ip), vehicle: saline with Tween-80
[7] = endpoint: mean survival time, dose: 100.0 mg/kg/injection, schedule: Q01DX009 (ip), vehicle: saline with Tween-80
[8] = endpoint: mean survival time, dose: 100.0 mg/kg/injection, schedule: Q04DX003 (ip), vehicle: saline with Tween-80
[9] = endpoint: mean survival time, dose: 400.0 mg/kg/injection, schedule: Q01DX001 (ip), vehicle: saline

Measured: T/C

CC/C(=C(/CC)c1ccc(OP(=O)(Cl)N(CCCl)CCCl)cc1)c1ccc(OP(=O)(Cl)N(CCCl)CCCl)cc1 (stereo unspecified)
inactive: endpoint: median survival time, dose: 31.25 mg/kg/injection, schedule: Q01DX001 (ip), vehicle: distilled water + Tween-80 108 % of control | endpoint: median survival time, dose: 62.5 mg/kg/injection, schedule: Q01DX001 (ip), vehicle: distilled water + Tween-80 101 % of control | endpoint: median survival time, dose: 125.0 mg/kg/injection, schedule: Q01DX001 (ip), vehicle: distilled water + Tween-80 97 % of control | endpoint: median survival time, dose: 250.0 mg/kg/injection, schedule: Q01DX001 (ip), vehicle: distilled water + Tween-80 100 % of control | endpoint: median survival time, dose: 500.0 mg/kg/injection, schedule: Q01DX001 (ip), vehicle: distilled water + Tween-80 100 % of control

CC(C)N1CCOCC1
inactive: endpoint: mean survival time, dose: 100.0 mg/kg/injection, schedule: Q04DX003 (ip), vehicle: acetone 100 % of control

CC(=O)C(CCCCCCCCCCC(C(C)=O)C(C)=O)C(C)=O
inactive: [1] 93 % of control | endpoint: mean survival time, dose: 200.0 mg/kg/injection, schedule: Q01DX001 (ip), vehicle: saline with Tween-80 101 % of control | endpoint: mean survival time, dose: 400.0 mg/kg/injection, schedule: Q01DX001 (ip), vehicle: saline with Tween-80 94 % of control

NC(=O)n1ccnc1
inactive: [2] 96 % of control | [3] 98 % of control | [4] 108 % of control

COC1OC(COC(c2ccccc2)(c2ccccc2)c2ccccc2)C(OC)C(OC)C1NC(C)=O (stereo unspecified)
inactive: endpoint: mean survival time, dose: 100.0 mg/kg/injection, schedule: Q01DX001 (ip), vehicle: Klucel (hydroxypropylcellulose) (HPC) 91 % of control | endpoint: mean survival time, dose: 200.0 mg/kg/injection, schedule: Q01DX001 (ip), vehicle: Klucel (hydroxypropylcellulose) (HPC) 96 % of control | endpoint: mean survival time, dose: 400.0 mg/kg/injection, schedule: Q01DX001 (ip), vehicle: Klucel (hydroxypropylcellulose) (HPC) 96 % of control

COc1ccc(C2=CC(c3ccccc3)C(c3ccccc3)C(=O)N2)cc1 (stereo unspecified)
inactive: [5] 98 % of control | endpoint: mean survival time, dose: 200.0 mg/kg/injection, schedule: Q04DX002 (ip), vehicle: saline with Tween-80 97 % of control | endpoint: mean survival time, dose: 400.0 mg/kg/injection, schedule: Q04DX002 (ip), vehicle: saline with Tween-80 90 % of control

COC(=O)CCC#N
inactive: endpoint: mean survival time, dose: 100.0 mg/kg/injection, schedule: Q04DX003 (ip), vehicle: saline 96 % of control | endpoint: mean survival time, dose: 200.0 mg/kg/injection, schedule: Q04DX003 (ip), vehicle: saline 91 % of control | endpoint: mean survival time, dose: 400.0 mg/kg/injection, schedule: Q04DX003 (ip), vehicle: saline 97 % of control

COc1ccc(C2=CCCCc3cc(O)c(OC)cc32)cc1
inactive: [6] 100 % of control | [7] 100 % of control | endpoint: mean survival time, dose: 200.0 mg/kg/injection, schedule: Q01DX009 (ip), vehicle: saline with Tween-80 100 % of control

C=C(CC(=O)OC)C(=O)O
inactive: endpoint: mean survival time, dose: 12.5 mg/kg/injection, schedule: Q01DX009 (ip), vehicle: saline 98 % of control | endpoint: mean survival time, dose: 25.0 mg/kg/injection, schedule: Q01DX009 (ip), vehicle: saline 98 % of control | endpoint: mean survival time, dose: 50.0 mg/kg/injection, schedule: Q01DX009 (ip), vehicle: saline 107 % of control | [8] 95 % of control | endpoint: mean survival time, dose: 200.0 mg/kg/injection, schedule: Q04DX003 (ip), vehicle: saline with Tween-80 98 % of control | endpoint: mean survival time, dose: 400.0 mg/kg/injection, schedule: Q04DX003 (ip), vehicle: saline with Tween-80 97 % of control

O=CC(C=O)[N+](=O)[O-]
inactive: [3] 103 % of control | [4] 103 % of control | [9] 97 % of control

OCc1cc2ccccc2cc1Br
inactive: [2] 89 % of control | [3] 93 % of control | [4] 95 % of control | [9] 100 % of control

Cc1ccc(NC2=NCCS2)c(C)c1
inactive: endpoint: mean survival time, dose: 25.0 mg/kg/injection, schedule: Q01DX001 (ip), vehicle: saline with Tween-80 106 % of control | endpoint: mean survival time, dose: 25.0 mg/kg/injection, schedule: Q01DX009 (ip), vehicle: saline with Tween-80 89 % of control and 95 % of control | [5] 104 % of control and 106 % of control | endpoint: mean survival time, dose: 25.0 mg/kg/injection, schedule: Q04DX003 (ip), vehicle: saline with Tween-80 101 % of control | endpoint: mean survival time, dose: 50.0 mg/kg/injection, schedule: Q01DX001 (ip), vehicle: saline with Tween-80 106 % of control | [6] 97 % of control and 103 % of control | endpoint: mean survival time, dose: 50.0 mg/kg/injection, schedule: Q04DX002 (ip), vehicle: saline with Tween-80 95 % of control and 110 % of control | endpoint: mean survival time, dose: 50.0 mg/kg/injection, schedule: Q04DX003 (ip), vehicle: saline with Tween-80 98 % of control | [1] 102 % of control | [7] 103 % of control | [8] 96 % of control

CC12CCC(C/C1=C\C#N)C(C)(C)O2 (stereo unspecified)
inactive: endpoint: mean survival time, dose: 50.0 mg/kg/injection, schedule: Q01DX009 (ip), vehicle: Klucel (hydroxypropylcellulose) (HPC) 97 % of control | endpoint: mean survival time, dose: 100.0 mg/kg/injection, schedule: Q01DX009 (ip), vehicle: Klucel (hydroxypropylcellulose) (HPC) 94 % of control | endpoint: mean survival time, dose: 200.0 mg/kg/injection, schedule: Q01DX009 (ip), vehicle: Klucel (hydroxypropylcellulose) (HPC) 105 % of control

From PubChem BioAssay AID256 (DTP/NCI, 2004)
